We go through 17 compounds from US9943528B2 (MAPREG, priority 2016, dated 2018).

One data set deals with Wistar Kyoto (WKY) rats. Description: Open-field arena (OFA) in WKY rats, acute treatment. To be noted: fluoxetine 10 mg/kg i.p., ketamine 30 mg/kg i.p.; for number of entries in the central square of OFA, change vs WKY receiving only vehicle: FIG. 5B; for time spent in the center of open-field vs WKY receiving vehicle: FIG. 5C. The format is in vivo, rat. On the procedure:
After a 6-day period of acclimatization, all experimental groups received daily successive subcutaneous (250 μl per rat) and intraperitoneal (1 ml/kg) injections. WI rats received injection of vehicle (sesame oil+saline) while WKY rats were randomly assigned to […] experimental groups, as follow: KWY rats receiving only vehicle (sesame oil+saline) and WKY rats treated with MAP4343 (10 mg/kg, s.c.; rats received in parallel i.p. injections of saline), fluoxetine (10 mg/kg i.p., rats received in parallel s.c. injections of sesame oil) or ketamine (30 mg/kg, i.p.; rats received in parallel s.c. injections of sesame oil) (see FIG. 3).
After, a 6-day period of acclimatization, the acute phase of treatment started for 4 days during behavioral tests were performed (FIG. 3). All animals were injected 1 h 30 before the starting of behavioral test.
The animals were individually placed in the open field arena (OFA) (70×100×70 cm), with a central square (35×50 cm), located in a 50 lux illuminated room and videotaped during 3 min using a computerized system (VideoTrack V2.5, ViewPoint, Lyon, France).
OFA allows firstly the evaluation of total locomotor activity (LMA) thereby measuring the total distance travelled in the arena (in cm). Secondly, measurements of the activity in the center of the arena like (i) the number of entries in the center of arena and (ii) the total time spent in the center of arena (in sec) provide cues of anxiety-like behavior (Prut and Belzung, 2003). All these behavioral parameters were instantaneously measured automatically with the VideoTrack V2.5 software from the videos.

The next data set concerns WKY rats. To be noted: cited from earlier work; for resistance of WKY rats to the drug: fluoxetine acute or chronic, citalopram acute, paroxetine sub-chronic (12 days).
Data set [1] is described as follows: Body weight of WKY rats under acute treatment. The format is in vivo, rat. To be noted: fluoxetine 10 mg/kg.
Data set [2] deals with T1, human progesterone receptor (PR) (Homo sapiens, UniProt P06401).
T1 construct: expressed in transfected cells; host or cells: HEK293T
T1 sequence (P06401 1-933): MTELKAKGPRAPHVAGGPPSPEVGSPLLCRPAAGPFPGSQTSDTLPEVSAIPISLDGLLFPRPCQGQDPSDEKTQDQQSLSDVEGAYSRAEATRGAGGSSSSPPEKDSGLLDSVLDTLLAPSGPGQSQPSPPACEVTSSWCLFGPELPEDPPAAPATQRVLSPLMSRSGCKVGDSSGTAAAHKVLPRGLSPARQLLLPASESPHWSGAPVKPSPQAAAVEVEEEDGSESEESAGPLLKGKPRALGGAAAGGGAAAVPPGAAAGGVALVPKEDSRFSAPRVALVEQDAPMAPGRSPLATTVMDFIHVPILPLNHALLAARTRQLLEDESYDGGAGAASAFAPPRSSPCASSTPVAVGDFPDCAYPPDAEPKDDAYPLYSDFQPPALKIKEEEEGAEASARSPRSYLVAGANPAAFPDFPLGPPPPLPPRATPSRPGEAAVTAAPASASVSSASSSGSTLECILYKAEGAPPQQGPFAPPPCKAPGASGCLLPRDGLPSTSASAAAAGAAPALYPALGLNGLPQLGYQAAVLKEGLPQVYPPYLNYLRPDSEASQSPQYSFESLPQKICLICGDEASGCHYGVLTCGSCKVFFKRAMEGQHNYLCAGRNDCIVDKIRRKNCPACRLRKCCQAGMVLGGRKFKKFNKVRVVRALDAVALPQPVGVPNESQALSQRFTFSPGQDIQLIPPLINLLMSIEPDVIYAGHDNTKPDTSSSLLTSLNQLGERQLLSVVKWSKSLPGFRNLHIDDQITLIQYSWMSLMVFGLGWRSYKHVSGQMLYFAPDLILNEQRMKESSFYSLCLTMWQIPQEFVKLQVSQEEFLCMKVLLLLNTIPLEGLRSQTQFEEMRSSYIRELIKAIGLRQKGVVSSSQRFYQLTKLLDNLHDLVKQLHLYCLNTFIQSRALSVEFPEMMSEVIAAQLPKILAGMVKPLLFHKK
As to the kind of experiment: Test of progesterone receptor agonist activity (MMTV-luciferase transactivation in transfected HEK293T cells). The format is cell-based. The settings on record: 24 hours, increasing amounts, FIG. 1. On the procedure:
The main experimental setting used is the following: HEK293T cells were transiently transfected, using calcium phosphate precipitation technology, with expression vectors pSG5hPR (which permits expression of human progesterone receptor (PR)), pFC31-luc (contains the luciferase gene under the control of the MMTV promoter, which is in turn activated by binding of a progestin to progesterone receptor) and pcbetagal (which permits expression of betagalactosidase), and cultured during 24 hours with increasing amounts of various compositions:
Test of Progesterone Receptor Agonist Activity: Transfected Cells were Cultured with Increasing Amounts of Progesterone or 3-Methoxy-Pregnenolone

Data set [3] concerns Wistar Kyoto rat strain (WKY). The settings on record: WKY rats, literature; cited from earlier work.
For another data set, the system named is MAP2. Description: Binding (affinity) by displacement of PREG-3H.
The subject of data set [4] is purified tubulin and MAP2. As to the kind of experiment: Activity: increase in optical density at 345 nm of purified tubulin and MAP2 with GTP. The format is biochemical. To be noted: 37° C. The procedure:
Activity is measured by the increase in optical density at 345 nm of a mixture of purified tubulin and MAP2, incubated at 37° C. in the presence of GTP.

In another data set the test system is PC12 cells. As to the kind of experiment: Stimulation of neuritic sprouting on PC12 cells differentiated with NGF. The format is cell-based. To be noted: NGF 10 ng/ml, steroid 30 μM, 3 days, relative to PREG. The procedure:
Stimulation of neuritic sprouting is conducted on PC12 cells differentiated in the presence of NGF (10 ng/ml) and the steroid being tested (30 μM) for 3 days. For each condition, the average length of the longest 200 neurites in each cell is measured simultaneously for 3 cultures.

“Also recorded” adds a separate entry of the source.

Consider `CNCCC(Oc1ccc(C(F)(F)F)cc1)c1ccccc1` (stereo not drawn) [fluoxetine], for which, in the data set with Wistar Kyoto (WKY) rats (MAP4343 10 mg/kg s.c.), the “number of entries in the central square of OFA, change vs WKY receiving only vehicle” value is “failed to significantly modify the low entries in the center” and the “time spent in the center of open-field vs WKY receiving vehicle” value is “did not induce any significant change of this measure”. Also, the “locomotor activity (total distance travelled in the open-field arena), change vs MAP4343-treated WKY” value in the data set with Wistar Kyoto (WKY) rats (FIG. 5A) is −52%. Moreover, the “efficacy in OFA, EPM and FST” value in the data set with WKY rats (WKY rats, acute or chronic administration) is on record as “no efficacy”. The “resistance of WKY rats to the drug” value with WKY rats is “resistant”. The body weight result in data set [1] was “a reduced body weight”.

On to `CC(=O)[C@H]1CC[C@H]2[C@@H]3CCC4=CC(=O)CC[C@]4(C)[C@H]3CC[C@]12C` [progesterone, reference compound], for which, in data set [2], the “progesterone receptor agonist activity (transactivation, expression of luciferase)” value is recorded as “permits a transactivation activity”.

With `CNCCCN1c2ccccc2CCc2ccccc21` [desipramine], the “immobility / depressive-like behavior in FST” value in data set [3] is “efficient to reverse depressive-like behavior”.

Take `CC(=O)[C@H]1[C@H](C)C[C@H]2[C@@H]3CC[C@H]4C[C@@H](O)CC[C@]4(C)[C@H]3CC[C@@]21C` [3β-hydroxy-5α-pregnane-20-one-16α-methyl]: in the data set on MAP2, the Affinity was 57% of PREG. Besides, in data set [4], the Activity is 53% of PREG.

In the case of `CO[C@H]1CC[C@@]2(C)[C@@H](CC[C@@H]3[C@@H]2CC[C@]2(C)[C@@H](C(C)=O)CC[C@@H]32)C1` [3β-methoxy-5α-pregnane-20-one], in the data set with MAP2, the Affinity is 87% of PREG. The Activity in data set [4] is given as 10% of PREG.

As to `CC(=O)[C@H]1[C@@H](C)C[C@H]2[C@@H]3CC=C4C[C@@H](O)CC[C@]4(C)[C@H]3CC[C@@]21C` [PREG-16β-methyl], in the data set on MAP2, the Affinity is reported as 63% of PREG. The Activity in data set [4] is listed as 67% of PREG.

Turning to `CC(=O)[C@@]12C[C@@H]1C[C@H]1[C@@H]3CC=C4C[C@@H](O)CC[C@]4(C)[C@H]3CC[C@@]12C` [PREG-16α,17α-methylene], the Affinity in the data set on MAP2 was 62% of PREG. Moreover, the Neuritic sprouting result with PC12 cells was “+ (lower than)”. Also, in data set [4], the Activity is 49% of PREG.

As to `CO[C@H]1CC[C@@]2(C)C(=CC[C@@H]3[C@@H]2CC[C@@]2(C)[C@H]3CC[C@@]2(C(C)=O)C(Cl)Cl)C1` [3β-methoxy-pregna-5-ene-20-one-17α-dichloromethyl], the Affinity in the data set on MAP2 is given as 53% of PREG. Moreover, the Activity in data set [4] is listed as 113% of PREG.

As to `CC(=O)[C@H]1[C@H](C)C[C@H]2[C@@H]3CC=C4C[C@@H](O)CC[C@]4(C)[C@H]3CC[C@@]21C` [PREG-16α-methyl], the Affinity in the data set with MAP2 was 80% of PREG. For the same compound, the Neuritic sprouting entry in the data set on PC12 cells was “++ (equal to)”. Besides, the Activity in data set [4] is 70% of PREG.

As for `CO[C@H]1CC[C@@]2(C)C(=CC[C@H]3C4=CC[C@H](C(C)=O)[C@@]4(C)CC[C@@H]32)C1` [3β-methoxy-pregna-5,14-diene-20-one], the Affinity with MAP2 was 102% of PREG. Also, the Activity in data set [4] is reported as 50% of PREG.

Take `Fc1ccc([C@@H]2CCNC[C@H]2COc2ccc3c(c2)OCO3)cc1` [paroxetine]: in the data set on WKY rats, the “resistance of WKY rats to the drug” value is listed as “resistant”.

Regarding PREG-16α,17α-epoxy, the Affinity with MAP2 is 41% of PREG. In the data set with PC12 cells, the Neuritic sprouting entry is reported as “+ (lower than)”. Moreover, the Activity in data set [4] is 54% of PREG.

As for `CO[C@H]1CC[C@@]2(C)C(CCC3C2CC[C@@]2(C)C3CC[C@@H]2[C@@H](C)O)C1` (stereo partly drawn) [3β-methoxy-5α-pregnane-20β-ol], in the data set on MAP2, the Affinity is given as 65% of PREG. Further, in data set [4], the Activity is on record as 65% of PREG.

Turning to `CC(=O)OC(C)C1CCC2C3CC=C4CC(O)CCC4(C)C3CCC12C` (stereo not drawn) [Pregna-5-ene-3β, 20β-dio1-20-acetate], the Affinity in the data set with MAP2 is listed as 60% of PREG. The Neuritic sprouting result with PC12 cells is recorded as “++ (equal to)”. Also, the Activity in data set [4] is recorded as 108% of PREG.

For the compound `NNCCc1ccccc1` [phenelzine], the “immobility / depressive-like behavior in FST” value in data set [3] was “subacute efficacy to reduce immobility”.

On to `CNC1(c2ccccc2Cl)CCCCC1=O` (stereo not drawn) [ketamine], for which the “locomotor activity (total distance travelled in the open-field arena), change vs WKY receiving vehicle” value in the data set with Wistar Kyoto (WKY) rats (MAP4343 10 mg/kg s.c., 3 min, FIG. 5A) was “no significant change of locomotor activity”. In the data set with Wistar Kyoto (WKY) rats (MAP4343 10 mg/kg s.c.), the “number of entries in the central square of OFA, change vs WKY receiving only vehicle” value is recorded as “failed to significantly modify the low entries in the center” and the “time spent in the center of open-field vs WKY receiving vehicle” value is on record as “did not induce any significant change of this measure”. Besides, in the data set on Wistar Kyoto (WKY) rats (FIG. 5A), the “locomotor activity (total distance travelled in the open-field arena), change vs MAP4343-treated WKY” value is “no significant change of locomotor activity”. Further, the “immobility / depressive-like behavior in FST” value in data set [3] is listed as “elicited antidepressant-like effect; also recorded: decrease immobility”.

Turning to `CC(=O)[C@H]1CC[C@H]2[C@@H]3CC=C4C[C@@H](O)CC[C@]4(C)[C@H]3CC[C@]12C` [Pregnenolone (PREG), 3β-hydroxypregn-5α-en-20α-one, reference compound], in the data set on MAP2, the Affinity is 100% of PREG. Moreover, the Neuritic sprouting entry in the data set on PC12 cells was “++ (equal to)”. In data set [4], the Activity is 100% of PREG.
